Data published in PMC8049054, “Systematic Assessment of Fragment Identification for Multitarget Drug Design” (Chemmedchem, 2021).
pKd: −log10 of the molar value.

How the values were obtained:
FXR = molecular target: T1, FXR (Homo sapiens, UniProt Q96RI1); test: ITC measurement FXR LBD; type: binding; set-up: key: n.b.: no binding; w.b.: weak binding; settings: 50 μM protein, 250 μM compound, 25 °C
T1 construct: His6-tag and TEV site (N, cleaved yes); made in house; host or cells: E. coli BL21 (DE3)
T1 sequence (Q96RI1 244-472 isoform Q96RI1-2): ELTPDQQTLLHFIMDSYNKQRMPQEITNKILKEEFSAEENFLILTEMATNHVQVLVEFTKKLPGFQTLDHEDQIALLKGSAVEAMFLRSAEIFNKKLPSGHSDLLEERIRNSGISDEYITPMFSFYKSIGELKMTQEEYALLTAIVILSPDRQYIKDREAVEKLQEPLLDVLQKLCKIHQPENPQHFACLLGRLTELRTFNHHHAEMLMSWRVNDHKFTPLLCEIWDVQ
Procedure: (§1) For hit validation, we employed secondary assays with orthogonal readouts to confirm fragment activities. Biochemical activity assays were chosen for the enzymes sEH, LTA4H, and 5‐LOX. […] RXRα and FXR modulation was assessed in cell‐based hybrid reporter gene assays. All ten compounds were tested at a single concentration of 500 μM in the sEH and LTA4H activity assays and with a concentration of 100 μM on 5‐LOX, RXRα, and FXR. Fragments showing an inhibition greater than 50 % (sEH‐H and LTA4H) or greater than 70 % (5‐LOX) as well as the hits determined in the DSF experiments were further characterized in full concentration‐response curves between 0.1 and 1000 μM. […] As alternative cell‐free assay we employed isothermal titration calorimetry (ITC) to determine binding affinity of the fragments towards the LBDs of both nuclear receptors. ITC was performed with a protein concentration of 50 μM and compound concentrations of 250 μM. […]
(§2) Final concentration per well was 3 nM sEH-Fl, 0.001 % Triton X-100, 25 mM Bis-tris, 0.1 mg/ml BSA, pH = 7.0, 1.6% DMSO […]

[1] = test system: sEH, LTA4H, 5‐LOX, FXR, RXR; test: Orthogonal (secondary) assays, summary statements over the targets
Procedure: as §1
% (5-LOX) as well as the hits determined in the DSF experiments were further measured with concentrations between 1000 µM and 0.1 µM (sEH-H and LTA4H) and between 300 µM and 1 µM (5-LOX). […] The 5-LOX activity assay was performed with one point per concentration and repeated 3 times Raw data was first analyzed in Microsoft Office Excel (2013), before IC50 curves were plotted and further analyzed using GraphPad Prism 7 and GraphPad Prism 8 for the shown graphs .
The eight approved drugs were measured in the orthogonal assay systems analogous to the fragments. […]
For the sEH-H and LTA4H, they were measured as triplicate in concentrations between 1000 µM and 1 µM and each measurement was repeated three times. For the 5-LOX they were measured as single point measurement in three different experiments with concentrations between 300 µM and 1 µM. […]
The sEH-H activity assay was performed adapted from Hahn et al.5 and Lukin et al.6. […] The Plate was measured every minute for 45 min. […]

RXRα = molecular target: T2, RXRα (Homo sapiens, UniProt P19793); test: ITC measurement RXRα LBD; type: binding; set-up: key: n.b.: no binding; w.b.: weak binding; settings: 50 μM protein, 250 μM compound, 25 °C
T2 construct: MBP (N, cleaved yes); poly-N-tag, His8-tag, TEV site (N, cleaved yes); made in house; host or cells: E. coli T7-express with pGro7 (GroEL/ES)
T2 sequence (P19793 225-462): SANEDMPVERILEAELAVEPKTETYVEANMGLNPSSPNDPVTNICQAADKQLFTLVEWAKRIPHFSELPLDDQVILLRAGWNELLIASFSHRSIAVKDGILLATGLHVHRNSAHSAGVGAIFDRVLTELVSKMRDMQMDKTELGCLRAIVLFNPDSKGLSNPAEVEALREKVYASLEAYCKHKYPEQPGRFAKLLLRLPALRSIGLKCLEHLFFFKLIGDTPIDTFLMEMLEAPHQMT
Procedure: as §1, §2

sEH-H = molecular target: T3, sEH-H (Homo sapiens, UniProt P34913); test: ITC measurement sEH-H; type: binding; settings: 25 °C, read-out: sEH K d
T3 construct: For the expression of sEH-H and sEH-Fl transformed E.coli BL21 (DE3) cells were grown in 5052; made in house; host or cells: E. coli BL21 (DE3)
T3 sequence (P34913 235-555 limits assumed): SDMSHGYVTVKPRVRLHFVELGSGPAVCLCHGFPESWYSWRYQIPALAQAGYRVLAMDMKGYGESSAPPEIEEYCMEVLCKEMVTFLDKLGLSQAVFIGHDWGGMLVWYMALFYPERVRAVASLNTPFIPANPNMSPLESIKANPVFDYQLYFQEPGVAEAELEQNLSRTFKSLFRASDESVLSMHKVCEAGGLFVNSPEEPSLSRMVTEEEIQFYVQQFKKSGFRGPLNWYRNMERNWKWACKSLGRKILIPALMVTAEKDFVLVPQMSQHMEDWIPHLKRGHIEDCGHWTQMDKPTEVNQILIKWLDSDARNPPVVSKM

Compound	FXR K d (FXR)	confirmation of dual DSF hits in the orthogonal experiments [1]	RXRα K d (RXRα)	pKd (sEH-H)
Oc1ccc2cc[nH]c2c1 [Compound 5]	n.b.	–	–	–
Cc1cc(=O)n(-c2ccc(C)c(C)c2)[nH]1 [Compound 2]	–	confirmed active	–	–
c1ccc(N2CCNCC2)nc1 [Compound 1]	n.b.	–	n.b.	–
Oc1ccc(-c2ccc(F)cc2F)cc1 [Compound 9]	–	confirmed active	n.b.	5.46
Clc1ccc2c(c1)Nc1ccccc1CC2 [Compound 8]	w.b.	–	–	–
Fc1ccc(-c2c[nH]c3ccccc23)cc1 [Compound 10]	n.b.	confirmed active	n.b.	6.07
